Experimental data as given in US11203773B2, “Designer ribosomes and methods of use thereof for incorporating non-standard amino acids into polypeptides” (Yale University, priority 2016, dated 2021).
Read-outs that look alike come from different tables or passages of the source.

How the values were obtained:
[1] = system: E. coli strains (BL21 (DE3)) with pUC18 rrnb plasmids; test: Screen of library for sensitivity to erythromycin (growth inhibition, OD600); assay type: cell-based; details: 6.8 μM erythromycin, E. coli with pUC18 plasmid encoding WT rrnb, 16-18 h
Description: (§3) To screen the resulting E. coli strains for antibiotic resistance, 2 μL of the 15% glycerol stocks prepared above were added to 98 μL of growth assay buffer (LB media (pH 8.35), 100 μg/mL carbenicillin, 1.0 mM IPTG, 6.8 μM erythromycin) in 384-well plates (Corning #3707). […] After 16-18 h, the extent of cell growth inhibition in the presence of antibiotic was determined by measuring the OD600 of each well using a SpectraMax M5 plate reader (Molecular Devices). The antibiotic-dependent inhibition of cell growth in each well was determined using Equation 4: [100−(OD600+A/OD600−A)×100] Equation 4 In this equation, OD600+A represents OD600 of wells containing antibiotic and OD600−A represents OD600 of wells lacking antibiotic.

E. coli GlyRS [2] = target: T1, E. coli GlyRS (Escherichia coli, UniProt P00960); details: for krev (apparent rate of deacylation): deacylation of aminoacyl-tRNA, GlyRS 2 μM, 25° C.
Description: (§4) Deacylation assays. Large scale (200 μL) aminoacylation reactions were initiated using the conditions described above (iv). The reactions were allowed to proceed for 1 h at 37° C., after which each reaction mixture was phenol/chloroform extracted. In each case, the aminoacylated tRNA product was ethanol precipitated, and the buffer was exchanged using a micro Bio-Spin 6 column (BioRad) following the procedure specified by the manufacturer and 100 mM HEPES (pH 8.0) containing 100 mM KCl. The precise extent of aminoacylation was calculated using the procedure described above; the 2 μM concentration corresponds to total aminoacylated tRNA. Assays were performed at 25° C. in a 50 μL reaction with 2 μM [^32P]-aminoacyl-tRNA in 100 mM HEPES (pH 7.0) containing 100 mM KCl and 15 mM MgCl2.

E. coli GlyRS [3] = target: T1, E. coli GlyRS; details: adenylation; for kcat (min^−1) or RSA (^32P-ATP formed min^−1 enzyme μM^−1): 25° C., pH 7.0
Description: (§5) Adenylation of α- and β-Amino Acids Catalyzed by E. coli PheRS, GlyRS, MetRS, and GluRS. […] Briefly, assay mixtures (50 μL) assembled at 25° C. contained the requisite α- or β^3-amino acid substrate (between 5 μM and 5 mM) in 100 mM HEPES (pH 7.0) containing 100 mM KCl, 15 mM MgCl2, 2 mM ATP, 0.5 mM NaPPi, and 50 μCi [^32P]-NaPPi). Reactions were initiated upon addition of enzyme (10 nM MetRS, 10 nM PheRS, or 50 nM GlyRS; 100 nM GluRS for reactions with α-Glu or 1.13 μM GluRS for reactions with β^3-Glu), incubated for various times (10 sec to 10 min), and halted by adding a 5 μL reaction aliquot to 100 μL quenching solution (10% charcoal, 0.5% HCl). 50 μL of 200 mM NaPPi in 1.5 N HCl was then added to each quenched reaction to decrease nonspecific binding of pyrophosphate to the charcoal. Each quenched reaction was then filtered through Whatman filter paper (number 3), previously washed with washing solution (200 mM NaPPi in 1 N HCl) using a 96-well BIO-DOT® apparatus (BioRad). Each well of the apparatus was then washed four times with 200 μL aliquots of washing solution (by pipetting washing solution up and down at least 10 times per wash) to minimize nonspecific binding of pyrophosphate to charcoal. Each experimental well was paired with an analogous control well (no-enzyme control) that lacked enzyme; a single membrane contained time points for both α- and β^3-amino acid substrates and all no-enzyme controls. The membrane was allowed to dry and was protected with a sheet of Microseal B adhesive seals (Biorad) prior to exposure to a BAS Storage Phosphor screen. Screens were imaged on a Typhoon 9500FLA biomolecule imager and the signal intensity of each dot was quantified using ImageJ to determine the relative amount of [^32P]-ATP formed as a function of time (Ctime). Each raw value were corrected by subtracting the intensity of the dot corresponding to the appropriate no-enzyme control (Cblank) and the resulting corrected values of Ccorr (representing the relative amounts of ^32P-ATP formed) were plotted as a function of time to determine values of relative ^32P-ATP formed per minute. Those values were divided by the concentration of enzyme used, and the data was plotted as relative specific activity (^32P-ATP formed min^−1×μM^−1 enzyme) and fitted using Prism by performing nonlinear regression using the least squares method and Equation 1 to obtain RSA (relative specific activity) and KM values (Equation 1 and Table 2).
(§6) In Equation 1, v is the apparent relative specific activity (relative ^32P-ATP formed per minute) obtained at each substrate concentration divided by the enzyme concentration, RSA is the relative specific activity, S is the concentration of substrate, and KM is the Michaelis-Menten constant.

E. coli GlyRS [4] = target: T1, E. coli GlyRS; details: aminoacylation; for kcat: 2 μM tRNA
[5] = system: BL21(DE3) cells expressing P7A7 ribosomes along with WT ribosomes; test: Expression of DHFR in 19/20 minimal media supplemented with amino acid (SDS-PAGE); assay type: cell-based, E. coli; details: media supplemented with 1 mM of the amino acid
From the text: (§1) To evaluate the extent of in vivo β^3-amino acid incorporation, BL21 (DE3) cells were co-transformed via electroporation (vide infra) with two plasmids. […] The other plasmid encoded either the WT rrnb sequence (pLK35-rrnb), the 040329 mutant reported by Hecht (pLK35-040329.rrnb), or the P7A7 mutant (pLK35-P7A7.rrnb) identified during the puromycin sensitivity screen described above.
(§2) ii. β^3-amino acid incorporation. The subsequent protocol for in vivo β^3-amino acid incorporation employed minimal media and was adapted from procedures reported by Tirrell and Cropp (Liu, et al., Bioorg Med Chem Lett, 20:5613 (2010); Mandavi, et al., J Am Chem Soc, 135:2979 (2013)). Briefly, all 5 mL of the co-transformed cells prepared as described above were diluted into 100 mL of LB containing 50 ng/mL of kanamycin and […] of carbenicillin and grown to OD600=1.0, spun down, and then resuspended in 1/10th the original volume of 19/20 minimal media (10.5 g/L M9 salts, 0.1 mM CaCl2, 1 mM MgSO4, 1% glycerol, 100 μM of each amino acid (minus α-Phe), 25 mg/L thiamine, […] carbenicillin, 30 ng/mL kanamycin, 1 mM IPTG) supplemented with 1 mM of α-Phe or a β^3-Phe analog. Cells were grown overnight (18 h) at 37° C. while shaking (200 rpm). The cells were harvested by centrifugation (10 min at 4000×g) and resuspended in lysis buffer (50 mM NaH2PO4, 300 mM NaCl, 10 mM imidazole (pH 8.0)). Lysis was performed by sonication (Branson Sonifier 250) with 5 cycles of 20 s on, 20 s off. Lysed cells were then centrifuged for 20 min at 15000×g. The clarified cell lysate was incubated with Ni-NTA resin (Qiagen) for 1 h while gently rotating at 4° C. The Ni-NTA column was washed with lysis buffer prior to eluting proteins with elution buffer (50 mM NaH2PO4, 300 mM NaCl, 300 mM imidazole (pH 8.0)). Elutions were analyzed with SDS-PAGE to prepare material for in-gel trypsin digestions. Controls included side-by-side growths in (1) unsupplemented 19/20 minimal media, which contains only low levels of α-Phe present (negative control); (2). 19/20 minimal media supplemented with 1 mM α-Phe (positive control) and (3) and 19/20 minimal media supplemented with 1 mM β^3-Gly (negative control; β^3-aa that is not a β^3-Phe analog).

[6] = system: BL21(DE3) cells expressing 040329 ribosomes along with WT ribosomes; test: as above; assay type: cell-based, E. coli; details: 040329 + WT ribosomes, media supplemented with 1 mM of the amino acid
From the text: as §1, §2

[7] = system: BL21(DE3) cells expressing only WT ribosomes; test: as above; assay type: cell-based, E. coli
From the text: as §1, §2

E. coli PheRS [8] = target: T2, E. coli PheRS (Escherichia coli, UniProt P08312); test: Deacylation assay of [32P]-aminoacyl-tRNA; assay type: biochemical; set-up: made in house; host or cells: E. coli BL21(DE3)
Description: as §4

E. coli PheRS [9] = target: T2, E. coli PheRS; test: Aminoacylation of 32P-tRNA with α- and β3-amino acids; assay type: biochemical; set-up: made in house; host or cells: E. coli BL21(DE3)
E. coli PheRS [10] = target: T2, E. coli PheRS; test: Adenylation of α- and β3-amino acids, pyrophosphate exchange assay
Description: as §5, §6

[11] = system: DHFR position 128 translated in E. coli BL21 (DE3); test: Spectral counting (LC-MS/MS of tryptic peptides) of β3-(p-Br)Phe and α-Phe incorporation into DHFR in vivo; assay type: cell-based; details: cells expressing 040329 ribosomes
From the text: as §1
as §2, with “19/20 minimal media supplemented with 1 mM α-Phe (positive control) and (3) and 19/20 minimal media supplemented with 1 mM β^3-Gly (negative control; β^3-aa that is not a β^3-Phe analog).” left out

[12] = system: E. coli strains (BL21 (DE3)) with pUC18 rrnb plasmids; test: Screen of erythromycin-resistant library for sensitivity to β3-puromycin (growth inhibition, OD600); assay type: cell-based; details: 250 μM β^3-puromycin, E. coli with pUC18 plasmid encoding WT rrnb
Description: as §3
The 1986 erythromycin-resistant clones identified above were then screened for sensitivity to β^3-puromycin sensitivity as described above, except that 250 μM β^3-puromycin was substituted for erythromycin.

T1 sequence (P00960 whole entry): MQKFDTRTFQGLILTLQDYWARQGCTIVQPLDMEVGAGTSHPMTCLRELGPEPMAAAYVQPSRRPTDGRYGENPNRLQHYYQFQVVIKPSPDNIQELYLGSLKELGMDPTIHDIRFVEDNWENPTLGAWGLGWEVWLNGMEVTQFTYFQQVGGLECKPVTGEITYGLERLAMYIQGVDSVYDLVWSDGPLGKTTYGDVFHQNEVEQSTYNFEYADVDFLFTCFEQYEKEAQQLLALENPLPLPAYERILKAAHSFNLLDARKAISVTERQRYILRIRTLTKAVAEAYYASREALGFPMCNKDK
T1 sequence (P00961 whole entry, further chain): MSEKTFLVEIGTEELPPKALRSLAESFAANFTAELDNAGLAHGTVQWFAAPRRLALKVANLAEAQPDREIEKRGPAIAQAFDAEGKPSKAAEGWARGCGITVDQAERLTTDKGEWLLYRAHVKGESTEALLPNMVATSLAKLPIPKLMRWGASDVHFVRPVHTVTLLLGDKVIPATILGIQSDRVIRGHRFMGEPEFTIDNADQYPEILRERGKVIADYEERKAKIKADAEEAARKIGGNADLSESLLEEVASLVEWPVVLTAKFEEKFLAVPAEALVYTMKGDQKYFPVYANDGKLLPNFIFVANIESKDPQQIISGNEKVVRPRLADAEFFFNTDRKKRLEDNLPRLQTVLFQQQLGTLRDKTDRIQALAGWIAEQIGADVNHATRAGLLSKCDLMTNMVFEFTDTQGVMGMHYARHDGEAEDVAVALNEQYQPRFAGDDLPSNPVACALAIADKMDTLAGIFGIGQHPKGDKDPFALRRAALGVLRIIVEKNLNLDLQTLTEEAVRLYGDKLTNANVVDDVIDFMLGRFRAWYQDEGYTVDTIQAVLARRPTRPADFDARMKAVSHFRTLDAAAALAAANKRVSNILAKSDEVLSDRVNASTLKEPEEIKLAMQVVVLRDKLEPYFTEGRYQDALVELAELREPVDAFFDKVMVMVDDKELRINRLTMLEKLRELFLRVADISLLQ
T2 sequence (P08312 whole entry): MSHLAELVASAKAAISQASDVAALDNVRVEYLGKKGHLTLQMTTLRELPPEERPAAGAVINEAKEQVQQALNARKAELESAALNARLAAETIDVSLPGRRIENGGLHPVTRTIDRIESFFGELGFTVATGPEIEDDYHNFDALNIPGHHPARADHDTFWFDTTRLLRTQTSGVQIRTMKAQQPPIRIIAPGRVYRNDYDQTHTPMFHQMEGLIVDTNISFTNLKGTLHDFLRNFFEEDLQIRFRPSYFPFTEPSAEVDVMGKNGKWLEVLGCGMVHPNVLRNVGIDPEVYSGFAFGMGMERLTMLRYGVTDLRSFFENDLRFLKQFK
T2 sequence (P07395 whole entry partner): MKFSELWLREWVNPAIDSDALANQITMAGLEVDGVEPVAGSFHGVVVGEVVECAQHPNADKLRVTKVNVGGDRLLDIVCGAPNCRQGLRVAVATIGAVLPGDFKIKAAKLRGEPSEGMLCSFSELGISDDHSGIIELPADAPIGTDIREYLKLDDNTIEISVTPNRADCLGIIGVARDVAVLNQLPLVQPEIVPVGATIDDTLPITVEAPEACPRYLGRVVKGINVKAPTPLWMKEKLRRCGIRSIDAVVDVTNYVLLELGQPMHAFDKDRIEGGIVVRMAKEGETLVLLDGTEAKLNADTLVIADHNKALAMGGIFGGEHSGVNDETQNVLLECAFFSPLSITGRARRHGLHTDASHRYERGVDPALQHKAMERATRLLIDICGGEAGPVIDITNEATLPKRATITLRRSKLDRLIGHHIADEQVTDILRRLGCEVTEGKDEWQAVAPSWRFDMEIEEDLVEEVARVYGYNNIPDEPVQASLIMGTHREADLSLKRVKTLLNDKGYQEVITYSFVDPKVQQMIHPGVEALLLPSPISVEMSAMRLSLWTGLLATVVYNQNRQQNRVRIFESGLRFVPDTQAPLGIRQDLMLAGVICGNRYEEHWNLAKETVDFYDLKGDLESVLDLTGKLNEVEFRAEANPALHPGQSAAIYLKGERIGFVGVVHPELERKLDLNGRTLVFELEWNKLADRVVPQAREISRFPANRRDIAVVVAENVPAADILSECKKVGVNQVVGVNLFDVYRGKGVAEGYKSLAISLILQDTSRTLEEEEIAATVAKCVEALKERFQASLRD

Compound: CC[C@H]1OC(=O)[C@H](C)[C@@H](O[C@H]2C[C@@](C)(OC)[C@@H](O)[C@H](C)O2)[C@H](C)[C@@H](O[C@@H]2O[C@H](C)C[C@H](N(C)C)[C@H]2O)[C@](C)(O)C[C@@H](C)C(=O)[C@H](C)[C@@H](O)[C@]1(C)O [erythromycin]
- growth inhibition [1]: full growth inhibition

Compound: NCC(=O)O [α-Gly, Glycine]
- krev (apparent rate of deacylation) (E. coli GlyRS [2]): 0.21 ± 0.08 min⁻¹
- Ratio (α/β) of krev (E. coli GlyRS [2]; deacylation, GlyRS): 0.3 ± 0.1
- Km (E. coli GlyRS [3]): 9.8 ± 3.5 µM
- Ratio (α-/β-) of KM (E. coli GlyRS [3]): 0.14 ± 0.11
- Ratio (α-/β-) of RSA (E. coli GlyRS [3]): 1.14 ± 0.24
- Ratio (α-/β-) of kcat/KM (E. coli GlyRS [3]): 7.97 ± 6.46
- kcat (min^−1) or RSA (^32P-ATP formed min^−1 enzyme μM^−1) (E. coli GlyRS [3]): 166.8 ± 12.8 ^32P-ATP formed min^−1 enzyme μM^−1
- Km (E. coli GlyRS [4]): 13.4 ± 4.7 µM
- Ratio (α/β) of KM (E. coli GlyRS [4]): 1.2 ± 1.00
- Ratio (α/β) of kcat (E. coli GlyRS [4]): 1.9 ± 1.0
- Ratio (α/β) of kcat/KM (E. coli GlyRS [4]): 1.5 ± 0.7
- kcat (E. coli GlyRS [4]): 0.0967 ± 0.0083 s⁻¹

Compound: N[C@@H](Cc1ccccc1)C(=O)O [α-Phe, Phenylalanine]
- level of DHFR [5]: lower levels
- level of DHFR [6]: significant levels
- level of DHFR, higher than trace amounts ([7]; α-Phe added): approximately 8 fold
- krev (apparent rate of deacylation) (E. coli PheRS [8]; deacylation of aminoacyl-tRNA, PheRS 500 nM, 25° C.): 0.15 ± 0.008 min⁻¹
- Ratio (α/β) of krev (E. coli PheRS [8]; deacylation, PheRS): 0.49 ± 0.05
- Ratio (α/β) of KM (E. coli PheRS [9]): 1.7 ± 0.9
- Ratio (α/β) of kcat (E. coli PheRS [9]): 3.7 ± 0.7
- Ratio (α/β) of kcat/KM (E. coli PheRS [9]): 2.2 ± 1.3
- kcat (E. coli PheRS [9]; 2 μM tRNA): 0.0143 ± 0.00183 s⁻¹
- Ratio (α-/β-) of KM (E. coli PheRS [10]): 0.18 ± 0.11
- Ratio (α-/β-) of RSA (E. coli PheRS [10]): 1.4 ± 0.3
- Ratio (α-/β-) of kcat/KM (E. coli PheRS [10]): 8.06 ± 5.63
- kcat (min^−1) or RSA (^32P-ATP formed min^−1 enzyme μM^−1) (E. coli PheRS [10]; RSA, 25° C., pH 7.0): 59.1 ± 7.1 ^32P-ATP formed min^−1 enzyme μM^−1

Compound: NCCC(=O)O [β-Gly, β^3-glycine]
- krev (apparent rate of deacylation) (E. coli GlyRS [2]): 0.71 ± 0.09 min⁻¹
- incorporation at position 128 of DHFR (LC-MS/MS) [11]: no evidence
- level of DHFR [5]: lower levels
- level of DHFR [6]: significant levels
- amount of DHFR generated ([7]; 19/20 minimal media supplemented with 1 mM of the amino acid): trace amounts
- Km (E. coli GlyRS [3]): 68.4 ± 47.3 µM
- kcat (min^−1) or RSA (^32P-ATP formed min^−1 enzyme μM^−1) (E. coli GlyRS [3]): 146.4 ± 29.2 ^32P-ATP formed min^−1 enzyme μM^−1
- Km (E. coli GlyRS [4]): 11.1 ± 2.8 µM
- kcat (E. coli GlyRS [4]): 0.0517 ± 0.0017 s⁻¹

Compound: COc1ccc(CC(N)CC(=O)NC2C(CO)OC(n3cnc4c(N(C)C)ncnc43)C2O)cc1 (stereo not drawn) [β^3-puromycin]
- growth inhibition [12]: lack of growth inhibition
